Data: patent US20150157615A1, “COMPOSITIONS AND METHOD FOR THE STIMULATION OF THE FEMALE AND MALE SEXUAL RESPONSE” (MULTICHEM S.A.S. DI GABRIELE SEGALLA, priority 2013, published 2015)

How the values were obtained:
[1] = test system: human skin; conditions: application on human skin; IJSPT Vol. 6 No. 2, 2011; cited from earlier work
[2] = test system: female sexual response
Method: (§1) The application is preferably carried out 4-5 minutes before intercourse, but can also be repeated during intercourse itself whenever required.

[3] = test system: male sexual response
Method: as §1

[4] = test system: skin; conditions: in the concentrations provided by the present invention
[5] = test system: skin; conditions: Norwegian Food Safety Authority risk profile / Council of Europe monograph 2008; cited from earlier work
[6] = women, alone, at least 0.5% up to 5% by weight, topical
[7] = men, alone, at least 0.5% up to 5% by weight, topical

## CC1CCC(C(C)C)C(O)C1 (stereo not drawn) [menthol]
[1]
  flow of blood in the part treated topically: reduces the flow of blood

## CC1CCC(C(C)C)C(OC(=O)c2cccnc2)C1 (stereo not drawn) [menthyl nicotinate, 5-Methyl-2-(isopropyl) cyclohexyl nicotinate]
[2]; in vivo
  turgidity of the tissues / reddening or itching: without however causing annoying reddening or itching
[2]; [6]
  latency period (period of time between orgasms): Decrease
  number of orgasms: Multiple orgasms
  stimulation of the clitoris: Intense and prolonged stimulation
  time necessary for reaching orgasm: Decrease
  times of foreplay: Decrease
[2]; women, depends on individual and concentration of active ingredient
  duration of perception of cool tingling in the zone of application: up to one hour and more
[3]; in vivo
  turgidity of the tissues / reddening or itching: without however causing annoying reddening or itching
[3]; [7]
  flow of blood in the corpora cavernosa, turgidity and power of erection: A greater flow of blood
  retardant and reinvigorating effect: A retardant and at the same reinvigorating effect
  sexual stimulation: more intense
  voluntary control of ejaculation: Greater ability
[4]
  rubefacient and itching effect: does not exhibit any unpleasant rubefacient and itching effect

## COC(=O)c1cccnc1 [methyl nicotinate]
[5]
  concentration at which highly irritating to the skin in some cases: 0.00137-0.003%
